Values of other authors, collected in patent US5006329A, “Radioactive tagged compounds and method for the treatment of metastatic bone cancer” (priority 1989, dated 1991).

Assays:
malignant bone tissue = details: tumor vs normal bone
[1] = for high energy beta emissions: e.g.
bone marrow = details: after treatment of a patient; reported
bone cancer = details: HMDP with Samarium-153 label
metastatic bone cancer = details: over 100 patients

| Molecule | accretion rate of tumor compared with normal bone (malignant bone tissue) | half-life (radioactive) [1] | high energy beta emissions [1] | blood profile changes (bone marrow) | safety with respect to healthy bone marrow tissue (bone cancer) | effectiveness in treating the malignancy (bone cancer; preliminary results) | degree of malignancy (metastatic bone cancer) | dose of radioactivity to bone marrow (metastatic bone cancer) | pain (metastatic bone cancer) | effectiveness in treating the cancer (metastatic bone cancer; Dr. Ralph Robinson) |
| --- | --- | --- | --- | --- | --- | --- | --- | --- | --- | --- |
| O=P([O-])([O-])CP(=O)(O)O.[Na+].[Na+] [MDP, disodium methylene-diphosphonate] | substantially higher than normal bone |  |  |  |  |  |  |  |  |  |
| [153Sm] [Samarium-153] |  | two | 600-700 KeV | blood profile changes occur | indeterminate | promising |  |  |  |  |
| Strontium-89 |  |  | 800 KeV | blood profile changes occur |  |  | reduced | unacceptably high | reduced | acceptable |
